In PubChem BioAssay (NCI):
Where “and” joins values, the source holds several entries; their conditions need not be identical. Equal entries are not always repeated.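 Briefly, cells in 96-well plates were exposed to five compound concentrations for 48 h, and endpoints were estimated by linear interpolation. The concentration for 50% growth inhibition is given as GI50. TGI: total growth inhibition.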 *1 amine or outer side, *2 acyl side, *3 side chain or, on linkers, in order; H or OH if unused. Where a SMILES comes first, the peptide text is derived from it. Bridges are numbered along the chain shown (N, C = ends). Roman numbers before positions name the chains, in order. [ ]: non-standard residue; d: D form. Actinocin(9to1) = Cc1c2oc3c(C)ccc(C(=O)[*:1])c3nc-2c(C(=O)[*:2])c(N)c1=O; NMeV = CN[CH](C(=O)O)C(C)C; Sar = CNCC(=O)O

What was measured:
Test in all cases: DTP human tumour cell line panel, 48 h
HS 578T breast = test system: HS 578T breast
LOX IMVI melanoma = test system: LOX IMVI melanoma
EKVX NSCLC = test system: EKVX NSCLC
MALME-3M melanoma = test system: MALME-3M melanoma
SW-620 colon = test system: SW-620 colon
ACHN renal = test system: ACHN renal
SF-539 CNS = test system: SF-539 CNS
SNB-19 CNS = test system: SNB-19 CNS
NCI-H522 lung = test system: NCI-H522 lung
NCI-H460 lung = test system: NCI-H460 lung

Structure (SMILES) | TGI (HS 578T breast) | TGI (LOX IMVI melanoma) | TGI (EKVX NSCLC) | TGI (MALME-3M melanoma) | TGI (SW-620 colon) | TGI (ACHN renal) | TGI (SF-539 CNS) | TGI (SNB-19 CNS) [µM] | TGI (NCI-H522 lung) [µM] | TGI (NCI-H460 lung) [µM] | GI50 (EKVX NSCLC) [µM] | GI50 (NCI-H522 lung) [µM] | GI50 (SF-539 CNS) [µM] | GI50 (SNB-19 CNS) [µM] | GI50 (HS 578T breast) [µM] | GI50 (MALME-3M melanoma) [µM] | GI50 (LOX IMVI melanoma) [µM] | GI50 (SW-620 colon) [µM] | GI50 (NCI-H460 lung) [µM] | GI50 (ACHN renal) [µM]
O=C(c1ccccc1)c1ccc2nc(-c3c(Cl)c(Cl)c(Cl)c(Cl)c3-c3nnc(-c4ccccc4)o3)[nH]c2c1 | > 100 µM | > 100 µM | > 100 µM | > 100 µM | > 100 µM | > 100 µM | > 100 µM | > 100 | 55.7 |  |  |  |  |  |  |  |  |  |  | 
COc1ccc(C#Cn2nnc3ccccc32)cc1 | > 100 µM | > 100 µM | > 100 µM | > 100 µM | > 100 µM | > 100 µM | > 100 µM | > 100 | > 100 | > 100 |  |  |  |  |  |  |  |  |  | 
Cc1c(CNc2ccc(C(=O)NC(CCCNC(=O)c3ccccc3C(=O)O)C(=O)O)cc2)cnc2nc(N)nc(N)c12 (stereo unspecified) |  |  | > 100 µM |  | > 100 µM |  |  | > 100 |  |  | 0.0834 | 0.00428 |  |  |  |  |  |  |  | 
Cc1cccc2c(N)c3cccc(C(=O)NCC[N+](C)(C)Cc4ccc([N+](=O)[O-])s4)c3nc12 | 34.6 µM | 18.6 µM | 41.5 µM | 25 µM | > 66.3 µM | > 49.2 µM | 23.9 µM | 60.2 | 28.2 | 16.5 |  |  |  |  |  |  |  |  |  | 
Clc1sc(Cl)c2c1[C@@H](Cl)C[C@@H]2Cl | > 100 µM | > 100 µM | > 100 µM | > 100 µM | > 100 µM | > 100 µM | > 100 µM |  | 58.2 | > 100 |  |  |  |  |  |  |  |  |  | 
CC(=O)n1cc(C2CC23N=C(c2ccccc2)OC3=O)c2ccccc21 (stereo unspecified) | 68.6 µM | 35.8 µM | 51.1 µM | 58.2 µM | 56.7 µM | 38.3 µM | 41.2 µM | > 89.7 | 37.3 | > 64.9 |  |  |  |  |  |  |  |  |  | 
Cc1c2oc3c(C)ccc(C(=O)NC4C(=O)NC(Cc5ccccc5)C(=O)N5CCCC5C(=O)N(C)CC(=O)N(C)C(C(C)C)C(=O)OC4C)c3nc-2c(C(=O)NC2C(=O)NC(Cc3ccccc3)C(=O)N3CCCC3C(=O)N(C)CC(=O)N(C)C(C(C)C)C(=O)OC2C)c(N)c1=O (stereo unspecified) (I: TFP[Sar][NMeV] / II: TFP[Sar][NMeV]; ester I:1-I:C, II:1-II:C; linker I:N-II:N via Actinocin(9to1); configuration not given here) | 0.0472 µM and 0.055 µM |  |  | 0.0187 µM |  | 1.21 µM and 1.98 µM |  | 1.62 | 0.0217 |  |  |  | < 0.001 | < 0.001 |  |  |  |  |  | 
Cn1cccc1-c1ccc(-c2ccc(CO)[se]2)[se]1 | > 100 µM | > 70.6 µM | > 100 µM | > 100 µM | > 100 µM | > 100 µM | > 82.9 µM | > 100 | 50.1 | > 100 |  |  |  |  |  |  |  |  |  | 
CC(=O)O[C@H]1CC[C@@]2(C)C(=CC[C@@H]3[C@@H]2CC[C@]2(C)C(=N/O)/C(=C\c4ccccc4)C[C@@H]32)C1 | 50.9 µM | 26 µM | 51.2 µM | 24.7 µM | > 60.9 µM | > 100 µM | 83.3 µM | > 100 | 21.2 | 97.9 |  |  |  |  |  |  |  |  |  | 
CCC1(O)CC(OC2CC(N(C)C)C(OC3CC(O)C(OC4OC(C)C(=O)C=C4N)C(C)O3)C(C)O2)c2c(cc3c(c2O)C(=O)c2c(O)cccc2C3=O)C1C(=O)OC (stereo unspecified) | 0.594 µM and 4.1 µM | 1.48 µM and 1.56 µM | 0.539 µM and 1.43 µM | 0.233 µM and 0.137 µM | 1.76 µM and 1.2 µM | 0.312 µM and 0.895 µM | 0.502 µM and 1.4 µM | 2.05 | 0.319 |  | 0.0327 |  |  |  | 0.0579 | 0.0208 |  |  |  | 
C/C=C(\C)C(=O)OC1CC(OC(C)=O)C2(C(=O)OC)COC3C2C1(C)C1C2(C(=O)OC)OCC1(C3O)C1(O)C3CC(C4(O)C=COC4O3)C1(C)O2 (stereo unspecified) | > 100 µM | > 100 µM | > 100 µM |  | > 100 µM | > 100 µM | > 100 µM |  | > 100 | > 100 |  |  |  |  |  |  |  |  |  | 
Cc1cc(S(=O)(=O)Nc2nc3ncccc3[nH]2)c(S)cc1Cl | > 100 µM | > 100 µM | > 100 µM | > 100 µM | > 100 µM | > 100 µM | > 100 µM | > 100 | > 100 | > 100 |  |  |  |  |  |  |  |  |  | 
O=c1c2cc(C(F)(F)F)ccc2sc2c(NCCCNCCO)nc3ccccc3c12 |  | 2.7 µM |  | 3.09 µM | 2.98 µM | 2.86 µM | 3.03 µM | 3.1 |  | 2.57 |  |  | 1.6 | 1.65 |  | 1.59 | 1.35 | 1.54 | 1.22 | 1.51
CN1CCN(Cc2c[nH]c3c2C(=O)c2c(c(O)c4ccccc4c2O)C3=O)CC1 | 32.8 µM | 3.8 µM | 26.7 µM | 29.3 µM | 25 µM | 23.5 µM |  | 52 | 33.8 | 17.9 | 13.1 | 14.1 |  | 22.4 | 17 | 12.7 | 1.92 | 12.5 | 5.42 | 11.3
CNc1nnc(CCCCCCCCc2nnc(NC)o2)o1 |  | 38.5 µM | > 100 µM |  | > 100 µM | > 100 µM | > 100 µM | > 100 |  | > 100 |  |  |  |  |  |  |  |  |  | 
ClC(Cl)(Cl)C1CCOC1n1nnc2ccccc21 (stereo unspecified) | > 100 µM |  | > 100 µM | > 100 µM |  |  | > 100 µM |  | > 100 |  |  |  |  |  |  |  |  |  |  | 
NCCCN(CCCCN(CCCN)C(=O)OCc1ccccc1)C(=O)OCc1ccccc1 | > 100 µM | > 100 µM | > 100 µM |  | > 100 µM | > 100 µM | > 100 µM | > 100 | 85.4 | > 100 |  |  |  |  |  |  |  |  |  | 
C#CC[C@@]12CC(=O)C[C@@H]1CCC1(C2)OCCO1 (tested in a mixture with another compound) |  | > 100 µM | > 100 µM | > 100 µM | > 100 µM |  | > 100 µM | > 100 | > 100 | > 100 |  |  |  |  |  |  |  |  |  | 
COc1ccc(-n2c(=O)c3[nH]c(=S)[nH]c3n(-c3ccc(OC)cc3)c2=S)cc1 |  | > 100 µM | > 100 µM |  | > 100 µM | > 100 µM | > 100 µM |  | > 100 | > 100 |  |  |  |  |  |  |  |  |  | 
O=C(CCN1CCOCC1)/C(=C/c1ccccc1)c1ccccc1 |  | 7.42 µM | 23.9 µM | 8.74 µM | 6.9 µM |  | 9.31 µM | 23.4 | 3.84 | 23.1 |  |  |  |  |  |  |  |  |  | 
